Test results taken from US20240218022A1, “ANTI-VISTA MACROCYCLIC PEPTIDES AND COMPOSITIONS” (BRISTOL-MYERS SQUIBB COMPANY, priority 2022, published 2024).
Where two headings read alike, the source gives them in different places. One block for each compound: values may come before it. Starred links: 1 amine or outer side, 2 acyl side, 3 side chain; linkers in the order of their positions; H or OH if unused. Positions of bridges follow the written chain, without caps; N, C: chain ends. Non-standard residues stand in square brackets, D forms with d. Residues, ends and D or L forms follow the SMILES beside them. ξ: configuration not given here. Phe(4-COOH) = N[C@@H](Cc1ccc(C(=O)O)cc1)C(=O)O; Phe(3-Me) = Cc1cccc(C[C@H](N)C(=O)O)c1; γGlu = O=C(O)[C@H](CCC(=O)[*:2])N[*:1]; 2Nal = N[C@@H](Cc1ccc2ccccc2c1)C(=O)O; βAsp = O=C(O)[C@H](CC(=O)[*:2])N[*:1]; Cit = NC(=O)NCCC[C@H](N)C(=O)O; Ile(3ξ) = CCC(C)[C@H](N)C(=O)O; NMeL = CN[C@@H](CC(C)C)C(=O)O; Ahp(2) = CCCCC[C@H](N)C(=O)O; NMeNle = CCCC[C@H](NC)C(=O)O; Tle = CC(C)(C)[C@H](N)C(=O)O; NMeV = CN[C@H](C(=O)O)C(C)C; NMeS = CN[C@@H](CO)C(=O)O; NHexGly = CCCCCCNCC(=O)O; Nle = CCCC[C@H](N)C(=O)O; Aun = NCCCCCCCCCCC(=O)O; AEEA = NCCOCCOCC(=O)O

Target: T1, mouse VISTA (mVISTA) (Mus musculus, UniProt Q9D659)
T1 construct: expressed in transfected cells; host or cells: Human embryonic kidney 293T cells
T1 sequence (Q9D659 33-308): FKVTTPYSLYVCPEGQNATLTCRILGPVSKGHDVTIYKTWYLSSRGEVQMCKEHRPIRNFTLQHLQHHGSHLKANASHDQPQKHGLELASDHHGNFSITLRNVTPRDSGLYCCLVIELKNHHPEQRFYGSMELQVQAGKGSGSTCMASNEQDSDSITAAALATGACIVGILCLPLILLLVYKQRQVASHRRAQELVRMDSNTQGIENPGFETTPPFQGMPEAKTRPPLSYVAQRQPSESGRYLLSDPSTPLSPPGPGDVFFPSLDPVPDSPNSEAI
Test: Cell-Based Binding High-Content Assay For mVISTA (HC CBA mVISTA)
Method in brief: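 This high-content binding assay uses HEK293T cells expressing murine VISTA, measuring displacement of 2 nM biotinylated peptide by fluorescent streptavidin imaging. IC50 values come from four-parameter logistic fitting.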

[1] = cell-based binding high-content assay, mVISTA, the 16th table, read-out: HC CBA mVISTA IC50
[2] = cell-based binding high-content assay, mVISTA, read-out: HC CBA miPr ISTA IC50

IC50 [1]: 37.1 nM
SMILES: CCCCCCN1CC(=O)N[C@@H](Cc2ccc(O)cc2)C(=O)N[C@@H](CCCC)C(=O)N[C@@H](CC(N)=O)C(=O)N[C@@H](CCCNC(=N)N)C(=O)N[C@@H](CC(C)C)C(=O)N[C@@H](CCCCC)C(=O)N2CCC[C@H]2C(=O)N[C@@H](C(C)C)C(=O)N[C@@H](CC(=O)O)C(=O)N[C@H](C(=O)N[C@@H](CO)C(N)=O)CSCC(=O)N[C@@H](Cc2ccc3ccccc3c2)C(=O)N[C@@H](Cc2ccc(O)cc2)C(=O)N[C@@H](CC(=O)O)C1=O [Ex 1315] ({CH2CO}-[2Nal]YD[NHexGly]Y[Nle]NRL[Ahp(2)]PVDCS-NH2; thioether N-14)

IC50 (cell-based binding high-content assay, mVISTA, the 15th table, read-out: HC CBA mVISTA IC50): 22.1 nM
SMILES: CCCCCCN1CC(=O)N[C@@H](Cc2ccc(O)cc2)C(=O)N[C@@H](CCCCC)C(=O)N[C@@H](CC(N)=O)C(=O)N[C@@H](CCCNC(=N)N)C(=O)N(C)[C@@H](CCCC)C(=O)N[C@@H](CCCCC)C(=O)N2CCC[C@H]2C(=O)N[C@@H](C(C)C)C(=O)N[C@@H](C(C)C)C(=O)N[C@H](C(=O)NCC(=O)O)CSCC(=O)N[C@@H](Cc2ccc3ccccc3c2)C(=O)N[C@@H](Cc2c[nH]c3ccccc23)C(=O)N[C@@H](CC(=O)O)C1=O [compound 1250] ({CH2CO}-[2Nal]WD[NHexGly]Y[Ahp(2)]NR[NMeNle][Ahp(2)]PVVCG-OH; thioether N-14)

IC50 (293T cells expressing mouse VISTA, competition with biotinylated peptide (2 nM), read-out: CBA mVISTA IC50): 19.1 nM
SMILES: CCCCCCN1CC(=O)N[C@@H](Cc2ccc(O)cc2)C(=O)N[C@@H](CCCC)C(=O)N[C@@H](CC(=O)O)C(=O)N[C@@H](CCCNC(=N)N)C(=O)N(C)[C@@H](CCCC)C(=O)N[C@@H](CCCCC)C(=O)N2CCC[C@H]2C(=O)N[C@@H](C(C)C)C(=O)N[C@@H](CC(=O)O)C(=O)N[C@H](C(=O)N[C@H](CC(=O)O)C(N)=O)CSCC(=O)N[C@@H](Cc2ccccc2)C(=O)N[C@@H](Cc2ccc(O)cc2)C(=O)N[C@@H](CC(=O)O)C1=O [Example 1075] ({CH2CO}-FYD[NHexGly]Y[Nle]DR[NMeNle][Ahp(2)]PVDC[dD]-NH2; thioether N-14)

IC50 (293T cells expressing mouse VISTA, competition with biotinylated peptide (2 nM), read-out: HC CBA mVISTA IC50): 5.4 nM
SMILES: CCCCCCN1CC(=O)N[C@@H](Cc2ccc(O)cc2)C(=O)N[C@@H](CC(C)C)C(=O)N[C@@H](CC(N)=O)C(=O)N[C@@H](CCCNC(=N)N)C(=O)N[C@@H](CC(C)C)C(=O)N[C@@H](CCCCC)C(=O)N2CCC[C@H]2C(=O)N[C@@H](C(C)C)C(=O)N[C@@H](CO)C(=O)N[C@H](C(=O)NCC(N)=O)CSCC(=O)N[C@@H](Cc2ccccc2)C(=O)N[C@@H](Cc2ccc(O)cc2)C(=O)N[C@@H](CC(=O)O)C1=O [Example 1040] ({CH2CO}-FYD[NHexGly]YLNRL[Ahp(2)]PVSCG-NH2; thioether N-14)

IC50 (the 20th table, scaffold drawing 23, read-out: HC CBA mVISTA IC50): 32.9 nM
SMILES: CCCCCCN1CC(=O)N[C@@H](Cc2ccc(O)cc2)C(=O)N[C@@H](CCCC)C(=O)N[C@H](CC(N)=O)C(=O)N[C@@H](CCCNC(=N)N)C(=O)N[C@@H](CC(C)C)C(=O)N[C@@H](CCCCC)C(=O)N2CCC[C@H]2C(=O)N[C@@H](C(C)C)C(=O)N[C@@H](CO)C(=O)N[C@H](C(=O)NCC(=O)O)CSCC(=O)N[C@@H](Cc2c[nH]c3ccccc23)C(=O)N[C@@H](Cc2ccc(O)cc2)C(=O)N[C@@H](CC(=O)O)C1=O [compound 1471] ({CH2CO}-WYD[NHexGly]Y[Nle][dN]RL[Ahp(2)]PVSCG-OH; thioether N-14)

IC50 [1]: 15.9 nM
SMILES: CCCCCCN1CC(=O)N[C@@H](Cc2ccc(O)cc2)C(=O)N[C@@H](CCCC)C(=O)N[C@@H](CC(N)=O)C(=O)N[C@@H](CCCNC(=N)N)C(=O)N[C@@H](CC(C)C)C(=O)N[C@@H](CCCCC)C(=O)N2CCC[C@H]2C(=O)N[C@@H](C(C)C)C(=O)N[C@@H](CC(=O)O)C(=O)N[C@H](C(=O)N[C@@H](Cc2c[nH]c3ccccc23)C(N)=O)CSCC(=O)N[C@@H](Cc2ccc3ccccc3c2)C(=O)N[C@@H](Cc2ccc(O)cc2)C(=O)N[C@@H](CC(=O)O)C1=O [Ex 1321] ({CH2CO}-[2Nal]YD[NHexGly]Y[Nle]NRL[Ahp(2)]PVDCW-NH2; thioether N-14)

IC50 (read-out: HC CBA mVISTA IC50): 24 nM
SMILES: CCCCCCN1CC(=O)N[C@@H](Cc2ccc(O)cc2)C(=O)N[C@@H](CC(C)C)C(=O)N[C@@H](CC(N)=O)C(=O)N[C@@H](CCCNC(=N)N)C(=O)N(C)[C@@H](C(C)C)C(=O)N[C@@H](CCCCC)C(=O)N2CCC[C@H]2C(=O)N[C@@H](C(C)(C)C)C(=O)N[C@@H](CO)C(=O)N[C@H](C(=O)N[C@@H](CCC(=O)NCCCCCCCCCCC(=O)O)C(=O)O)CSCC(=O)N[C@@H](Cc2ccccc2)C(=O)N[C@@H](Cc2ccc(O)cc2)C(=O)N[C@@H](CC(=O)O)C1=O [Example 2133] ({CH2CO}-FYD[NHexGly]YLNR[NMeV][Ahp(2)]P[Tle]SC[γGlu][Aun]-OH; thioether N-14)

The remaining lines, values behind:

SMILES: CCCCCCN1CC(=O)N[C@@H](Cc2ccc(O)cc2)C(=O)N[C@@H](CCCCC)C(=O)NCC(=O)N[C@@H](CCCNC(N)=O)C(=O)N[C@@H](CC(C)C)C(=O)N[C@@H](CCCCC)C(=O)N2CCC[C@H]2C(=O)N[C@@H](C(C)C)C(=O)N[C@@H](CO)C(=O)N[C@H](C(=O)NCCOCCOCC(=O)N[C@@H](CC(=O)O)C(=O)NCCOCCOCC(=O)NCCCCCCCCCCC(=O)O)CSCC(=O)N[C@@H](Cc2ccccc2)C(=O)N[C@@H](Cc2ccc(O)cc2)C(=O)N[C@@H](CC(=O)O)C1=O [compound 2307] ({CH2CO}-FYD[NHexGly]Y[Ahp(2)]G[Cit]L[Ahp(2)]PVSC[AEEA]D[AEEA][Aun]-OH; thioether N-14)
IC50 (cell-based binding high-content assay, read-out: HC CBA miPrISTA IC50): 21.2 nM

SMILES: CCCCCCN1CC(=O)N[C@@H](Cc2ccc(O)cc2)C(=O)N[C@@H](CC(C)C)C(=O)N[C@@H](CC(N)=O)C(=O)N[C@@H](CCCNC(=N)N)C(=O)N(C)[C@@H](CO)C(=O)N[C@@H](CCCCC)C(=O)N2CCC[C@H]2C(=O)N[C@@H](C(C)(C)C)C(=O)N[C@@H](CC(=O)O)C(=O)N[C@H](C(=O)N[C@@H](CC(=O)NCCOCCOCC(=O)N[C@@H](CC(=O)O)C(=O)NCCOCCOCC(=O)NCCCCCCCCCCC(=O)O)C(=O)O)CSCC(=O)N[C@@H](Cc2ccccc2)C(=O)N[C@@H](Cc2cccc(C)c2)C(=O)N[C@@H](CC(=O)O)C1=O [compound 2069] ({CH2CO}-F[Phe(3-Me)]D[NHexGly]YLNR[NMeS][Ahp(2)]P[Tle]DC[βAsp][AEEA]D[AEEA][Aun]-OH; thioether N-14)
IC50 (cell-based binding high-content assay, mVISTA, read-out: HC CBA miPrISTA IC50): 45 nM

SMILES: CCCCCCN1CC(=O)N[C@@H](Cc2ccc(O)cc2)C(=O)N[C@@H](CCCC)C(=O)N[C@@H](CC(N)=O)C(=O)N[C@@H](CCCNC(=N)N)C(=O)N(C)[C@@H](CCCC)C(=O)N[C@@H](CCCCC)C(=O)N2CCC[C@H]2C(=O)N[C@@H](C(C)(C)C)C(=O)N[C@@H](CO)C(=O)N[C@H](C(=O)NCCOCCOCC(=O)N[C@@H](CCC(=O)NCCOCCOCC(=O)NCCCCCCCCCCC(=O)O)C(=O)O)CSCC(=O)N[C@@H](Cc2ccc(C(=O)O)cc2)C(=O)N[C@@H](Cc2ccc(O)cc2)C(=O)N[C@@H](CC(=O)O)C1=O [compound 2251] ({CH2CO}-[Phe(4-COOH)]YD[NHexGly]Y[Nle]NR[NMeNle][Ahp(2)]P[Tle]SC[AEEA][γGlu][AEEA][Aun]-OH; thioether N-14)
IC50 (read-out: HC CBA mVISTA IC50): 28.6 nM

SMILES: CCCCCCN1CC(=O)N[C@@H](Cc2ccc(O)cc2)C(=O)N[C@@H](CC(C)C)C(=O)N[C@@H](CC(N)=O)C(=O)N[C@@H](CCCNC(=N)N)C(=O)N(C)[C@@H](C(C)C)C(=O)N[C@@H](CCCCC)C(=O)N2CCC[C@H]2C(=O)N[C@@H](C(C)(C)C)C(=O)N[C@@H](CO)C(=O)N[C@H](C(=O)N[C@@H](CC(=O)NCCOCCOCC(=O)N[C@@H](CC(=O)O)C(=O)NCCOCCOCC(=O)NCCCCCCCCCCC(=O)O)C(=O)O)CSCC(=O)N[C@@H](Cc2ccccc2)C(=O)N[C@@H](Cc2c[nH]c3ccccc23)C(=O)N[C@@H](CC(=O)O)C1=O [compound 2039] ({CH2CO}-FWD[NHexGly]YLNR[NMeV][Ahp(2)]P[Tle]SC[βAsp][AEEA]D[AEEA][Aun]-OH; thioether N-14)
IC50 [2]: 23.8 nM

SMILES: CCCCCCN1CC(=O)N[C@@H](Cc2ccc(O)cc2)C(=O)N[C@@H](CCCC)C(=O)N[C@@H](CC(N)=O)C(=O)N[C@@H](CCCNC(=N)N)C(=O)N(C)[C@@H](CCCC)C(=O)N[C@@H](CCCCC)C(=O)N(C)[C@@H](CC(C)C)C(=O)N[C@@H](C(C)CC)C(=O)N[C@@H](CO)C(=O)N[C@H](C(=O)N[C@@H](CC(=O)NCCOCCOCC(=O)NCCCCCCCCCCC(=O)O)C(=O)O)CSCC(=O)N[C@@H](Cc2ccccc2)C(=O)N[C@@H](Cc2c[nH]c3ccccc23)C(=O)N[C@@H](CC(=O)O)C1=O (stereo partly shown) [Example 2178] ({CH2CO}-FWD[NHexGly]Y[Nle]NR[NMeNle][Ahp(2)][NMeL][Ile(3ξ)]SC[βAsp][AEEA][Aun]-OH; thioether N-14)
IC50 (read-out: HC CBA mVISTA IC50): 46.7 nM

SMILES: CCCCCCN1CC(=O)N[C@@H](Cc2ccc(O)cc2)C(=O)N[C@@H](CCCC)C(=O)N[C@@H](CC(N)=O)C(=O)N[C@@H](CCCNC(=N)N)C(=O)N(C)[C@@H](CCCC)C(=O)N[C@@H](CCCCC)C(=O)N2CCC[C@H]2C(=O)N[C@@H](C(C)(C)C)C(=O)N[C@@H](CO)C(=O)N[C@H](C(=O)N[C@@H](CC(=O)NCCOCCOCC(=O)N[C@@H](CC(=O)O)C(=O)NCCOCCOCC(=O)NCCCCCCCCCCC(=O)O)C(=O)O)CSCC(=O)N[C@@H](Cc2ccccc2)C(=O)N[C@@H](Cc2ccc(O)cc2)C(=O)N[C@@H](CC(=O)O)C1=O [compound 2021] ({CH2CO}-FYD[NHexGly]Y[Nle]NR[NMeNle][Ahp(2)]P[Tle]SC[βAsp][AEEA]D[AEEA][Aun]-OH; thioether N-14)
IC50 [2]: 19.5 nM
